Test results taken from patent US9040523B2, “Antifungal 5,6-dihydro-4H-pyrrolo[1,2-α][1,4]-benzodiazepines and 6H-pyrrolo[1,2-α][1,4]benzodiazepines substituted with benzene derivatives” (JANSSEN PHARMACEUTICA NV, priority 2010, dated 2015).
Counter-ions that a name gives are not always drawn.

Tests used:
CYP3A4 = CYP3A4 (Homo sapiens, UniProt P08684); assay: Cytochrome P450 inhibition, Protocol A, cDNA expressed proteins, fluorogenic substrates; type: in vitro ADME; settings: % inhibition at 10 μM, cDNA expressed protein; for hCYP3A4_BFC_Pct_Inh: substrate BFC; for hCYP3A4_BQ_Pct_Inh: substrate BQ; for hCYP3A4_DBF_Pct_Inh: substrate DBF
Chain of CYP3A4 (P08684 whole entry): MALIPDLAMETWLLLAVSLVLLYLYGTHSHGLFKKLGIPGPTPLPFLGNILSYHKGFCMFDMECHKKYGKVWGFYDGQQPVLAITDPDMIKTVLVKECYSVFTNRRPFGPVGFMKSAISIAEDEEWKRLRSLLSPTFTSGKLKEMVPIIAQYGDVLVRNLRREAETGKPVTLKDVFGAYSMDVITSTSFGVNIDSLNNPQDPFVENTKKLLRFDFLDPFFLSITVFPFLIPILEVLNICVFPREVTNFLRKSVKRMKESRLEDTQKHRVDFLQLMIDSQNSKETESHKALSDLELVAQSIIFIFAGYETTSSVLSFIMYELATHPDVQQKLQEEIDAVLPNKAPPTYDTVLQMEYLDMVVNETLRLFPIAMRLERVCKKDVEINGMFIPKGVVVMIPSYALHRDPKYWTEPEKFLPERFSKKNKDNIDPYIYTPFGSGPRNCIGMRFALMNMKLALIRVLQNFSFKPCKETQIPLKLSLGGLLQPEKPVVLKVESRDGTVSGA
Description: (§1) All fluorogenic based assays were performed in Black Costar 96-well plates according to Crespi et al 1997 with minor modifications (Crespi C L, Miller V P & Penman B W (1997). Microtiter plate assays for inhibition of human, drug-metabolizing cytochromes P450. Anal. Biochem. Vol 248, 1898-1900). Assay conditions are outlined in Table 5a. For cytochrome P450 3A4, three different fluorogenic substrates were used. Each reaction mixture consisted of the appropriate concentration of enzyme, NADPH-generating system (“NADPH” means β-nicotinamide adenine dinucleotide phosphate, reduced), substrate in sodium/potassium buffer (pH 7.4). For each cytochrome P450 batch Michealis-Menten kinetics were determined using 11 concentrations.
(§2) Thereafter, further dilutions were made in acetonitrile. […] The compounds were serially diluted to give final concentrations ranging from 1 nM to 10 μM. The reaction mixtures, whereby 1 μL of buffer was replaced by compound solution, were pre-warmed for 5 min at 37° C. and the reaction was initiated by the addition of β-nicotinamide adenine dinucleotide phosphate (NADP+). Reactions were terminated by addition of stopping reagent and the fluorescence was measured using a Fluoroscan (Labsystems, Brussel, Belgium).
(§3) In Table 5a, the following abbreviations were used: 3-cyano-7-ethocycoumarin (CEC), 7-methoxy-4-trifluoromethylcoumarin (MFC), 3-[2-(N,N-diethyl-N-methylamino)ethyl]-7-methoxy-4-methylcoumarin (AMMC), 7-benzyloxy-trifluoromethyl coumarin (BFC), 7-benzyloxyquinoline (BQ) and dibenzyl fluorescein (DBF).

CYP1A2 = biological target: T1, CYP1A2 (Homo sapiens, UniProt P05177); assay: Cytochrome P450 inhibition, Protocol A, cDNA expressed proteins, fluorogenic substrate; type: in vitro ADME; settings: % inhibition at 10 μM; substrate CEC; cDNA expressed protein
T1 sequence (P05177 1-516): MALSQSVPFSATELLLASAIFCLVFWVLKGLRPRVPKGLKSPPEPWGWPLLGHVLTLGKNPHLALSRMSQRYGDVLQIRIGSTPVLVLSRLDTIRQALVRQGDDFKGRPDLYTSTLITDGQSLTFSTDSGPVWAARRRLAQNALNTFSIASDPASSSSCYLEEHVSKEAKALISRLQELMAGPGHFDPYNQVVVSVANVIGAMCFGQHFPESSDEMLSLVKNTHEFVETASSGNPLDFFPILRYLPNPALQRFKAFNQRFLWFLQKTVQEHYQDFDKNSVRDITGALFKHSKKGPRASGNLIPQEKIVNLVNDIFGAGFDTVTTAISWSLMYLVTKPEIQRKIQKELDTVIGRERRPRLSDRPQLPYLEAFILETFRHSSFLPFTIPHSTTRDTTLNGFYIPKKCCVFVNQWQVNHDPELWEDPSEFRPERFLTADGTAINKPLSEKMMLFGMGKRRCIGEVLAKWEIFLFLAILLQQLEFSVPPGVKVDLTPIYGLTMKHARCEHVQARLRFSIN
Description: as §1, §2, §3

CYP2D6 = CYP2D6 (Homo sapiens, UniProt P10635); assay: as above; type: in vitro ADME; settings: % inhibition at 10 μM; substrate AMMC; cDNA expressed protein
Chain of CYP2D6 (P10635 whole entry): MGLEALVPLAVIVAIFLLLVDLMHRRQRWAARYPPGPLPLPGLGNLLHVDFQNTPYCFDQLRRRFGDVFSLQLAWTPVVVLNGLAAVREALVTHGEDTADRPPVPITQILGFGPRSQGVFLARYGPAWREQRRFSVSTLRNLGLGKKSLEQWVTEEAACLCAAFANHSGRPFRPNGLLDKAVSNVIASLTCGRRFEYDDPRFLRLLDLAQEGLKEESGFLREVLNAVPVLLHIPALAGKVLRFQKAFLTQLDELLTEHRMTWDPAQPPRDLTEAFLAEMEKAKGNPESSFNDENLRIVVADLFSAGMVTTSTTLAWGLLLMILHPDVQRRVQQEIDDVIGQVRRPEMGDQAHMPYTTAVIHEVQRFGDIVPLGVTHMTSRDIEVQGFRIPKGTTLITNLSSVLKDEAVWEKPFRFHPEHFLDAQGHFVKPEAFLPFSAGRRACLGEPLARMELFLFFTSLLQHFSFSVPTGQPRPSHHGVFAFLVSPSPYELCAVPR
Description: as §1, §2, §3

CYP2C9 = CYP2C9 (Homo sapiens, UniProt P11712); assay: as above; type: in vitro ADME; settings: % inhibition at 10 μM; substrate MFC; cDNA expressed protein
Chain of CYP2C9 (P11712 whole entry): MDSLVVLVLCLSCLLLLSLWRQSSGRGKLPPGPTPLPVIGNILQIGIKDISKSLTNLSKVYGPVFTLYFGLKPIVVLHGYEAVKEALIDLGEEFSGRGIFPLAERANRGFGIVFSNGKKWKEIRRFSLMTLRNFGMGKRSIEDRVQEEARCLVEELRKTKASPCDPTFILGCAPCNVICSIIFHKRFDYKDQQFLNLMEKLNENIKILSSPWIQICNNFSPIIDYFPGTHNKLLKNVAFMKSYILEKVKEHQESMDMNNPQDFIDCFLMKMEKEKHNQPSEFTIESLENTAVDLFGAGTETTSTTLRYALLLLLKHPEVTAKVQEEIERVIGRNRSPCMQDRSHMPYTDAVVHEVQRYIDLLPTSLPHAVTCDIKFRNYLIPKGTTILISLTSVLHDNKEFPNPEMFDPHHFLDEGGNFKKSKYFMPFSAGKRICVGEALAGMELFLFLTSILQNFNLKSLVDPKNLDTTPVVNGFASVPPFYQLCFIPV
Description: as §1, §2, §3

[1] = tested on: Trichophyton rubrum B68183; assay: Antifungal activity in vitro (resazurin susceptibility screen), Inf. C; type: cell-based; settings: Trichophyton rubrum B68183, 27 °C, 7 days, resa time 24 hours; for IC50: read-out: Inf. C pIC50 (converted)
Description: (§4) The standard susceptibility screen was performed in 96-well plates (U-bottom, Greiner Bio-One). […] These serial dilutions (10 n1) were then spotted onto test-plates that could be stored in the dark at 4° C. for a maximum period of 2 weeks. […] The different fungal species/isolates (Table 3a) were cryopreserved and 1/1000 diluted in medium just prior to use. A standard inoculum of 200 μl containing 10^3 colony-forming unit (cfu) was then added to each well. A positive control (100% growth=fungal culture without antifungal) and a negative control (0% growth ═RPMI-MOPS medium) were included on each plate. […] [table]

[2] = tested on: Trichophyton mentagrophytes B70554; assay: Antifungal activity in vitro (resazurin susceptibility screen), Inf. G; type: cell-based; settings: 27 °C, 7 days, resa time 24 hours; for IC50: Trichophyton mentagrophytes, B70554, Trichophyton mentagrophytes B70554, read-out: Inf. G pIC50 (converted); for Inf. G pIC50: Trichophyton mentagrophytes B70554
Description: (§5) The standard susceptibility screen was performed in 96-well plates (U-bottom, Greiner Bio-One). […] These serial dilutions (10 n1) were then spotted onto test-plates that could be stored in the dark at 4° C. for a maximum period of 2 weeks. […] A standard inoculum of 200 μl containing 10^3 colony-forming unit (cfu) was then added to each well. A positive control (100% growth=fungal culture without antifungal) and a negative control (0% growth ═RPMI-MOPS medium) were included on each plate.

[3] = tested on: Aspergillus fumigatus B42928; assay: Antifungal activity in vitro (resazurin susceptibility screen), Inf. E; type: cell-based; settings: Aspergillus fumigatus B42928, 27 °C, 48 hours, resa time 17 hours; for IC50: read-out: Inf. E pIC50 (converted)
Description: as §4

[4] = tested on: Candida parapsilosis B66126; assay: Antifungal activity in vitro (resazurin susceptibility screen), Inf. D; type: cell-based; settings: Candida parapsilosis B66126, 37 °C, 24 hours, resa time 4 hours; for IC50: Lodderomyces parapsilosis, read-out: Inf. D pIC50 (converted)
Description: as §5

Microsporum canis B68128 = assay: Antifungal activity in vitro (resazurin susceptibility screen), Inf. B; type: cell-based; settings: 27 °C, 9 days, resa time 24 hours; for IC50: Microsporum canis, B68128, Microsporum canis B68128, read-out: Inf. B pIC50 (converted); for Inf. B pIC50: Microsporum canis B68128
Description: as §5

[5] = tested on: Cryptococcus neoformans B66663; assay: Antifungal activity in vitro (resazurin susceptibility screen), Inf. F; type: cell-based; settings: 37 °C, 24 hours, resa time 4 hours; for IC50: Cryptococcus neoformans, B66663, Cryptococcus neoformans B66663, read-out: Inf. F pIC50 (converted); for Inf. F pIC50: Cryptococcus neoformans B66663
Description: as §4

[6] = tested on: Sporothrix schenkii B62482; assay: Antifungal activity in vitro (resazurin susceptibility screen), Inf. A; type: cell-based; settings: 27 °C, 4 days, resa time 24 hours, highest in-test concentration 64 μM; for IC50: Sporothrix, B62482, Sporothrix schenkii B62482, read-out: Inf. A pIC50 (converted); for Inf. A pIC50: Sporothrix schenkii B62482
Description: as §4

Structure (SMILES)	hCYP3A4_BFC_Pct_Inh (CYP3A4) [%]	hCYP3A4_BQ_Pct_Inh (CYP3A4) [%]	hCYP3A4_DBF_Pct_Inh (CYP3A4) [%]	hCYP1A2_CEC_Pct_Inh (CYP1A2) [%]	hCYP2D6_AMMC_Pct_Inh (CYP2D6) [%]	hCYP2C9_MFC_Pct_Inh (CYP2C9) [%]	Inf. B pIC50 (Microsporum canis B68128)	Inf. F pIC50 [5]	other results
CC(=O)c1ccc(C2NCc3c(Cl)cccc3-n3cccc32)cc1.Cl (stereo not shown)	57	57	70	12	53	54			
CCc1ccc(C2NCc3c(Cl)cccc3-n3cccc32)cc1.Cl (stereo not shown)	64	57	69	48	96	68			
CCc1ccc(C2=NCc3ccc(Cl)cc3-n3cccc32)cc1	55	66	70	40	33	50			
CC(=O)c1ccc(C2NCc3ccc(Cl)cc3-n3cccc32)cc1 (stereo not shown) [Compound 8, 1-[4-(9-chloro-5,6-dihydro-4H-pyrrolo[1,2-a][1,4]benzodiazepin-4-yl)phenyl]-ethanone]									IC50 [1]: 2 µM; IC50 [2]: 5.01 µM; IC50 [3]: 12.6 µM; IC50 [4]: > 63.1 µM; IC50 (Microsporum canis B68128): > 63.1 µM; IC50 [5]: 50.1 µM; IC50 [6]: 31.6 µM; melting point: 185.4 to 186.9 °C
CC(=O)c1ccc(C2NCc3c(Cl)cc(Cl)cc3-n3cccc32)cc1 (stereo not shown) [Compound 11, 1-[4-(7,9-dichloro-5,6-dihydro-4H-pyrrolo[1,2-a][1,4]benzodiazepin-4-yl)phenyl]-ethanone]							6.0	5.2	IC50 [1]: 2 µM; IC50 [2]: 5.01 µM; IC50 [3]: > 63.1 µM; IC50 [4]: > 63.1 µM; IC50 [6]: 50.1 µM; melting point: 204.8 to 206.6 °C
CS(=O)(=O)c1ccc(C2=NCc3c(Cl)cc(Cl)cc3-n3cccc32)cc1 [Compound 30, 7,9-dichloro-4-[4-(methylsulfonyl)phenyl]-6H-pyrrolo[1,2-a][1,4]benzodiazepine]									IC50 [1]: 2 µM; IC50 [2]: 6.31 µM; IC50 [3]: 63.1 µM; IC50 [4]: > 63.1 µM; IC50 (Microsporum canis B68128): 3.98 µM; IC50 [5]: 15.8 µM; IC50 [6]: 50.1 µM
OCCc1ccc(C2NCc3c(Cl)cc(Cl)cc3-n3cccc32)cc1 (stereo not shown) [Compound 34, 4-(7,9-dichloro-5,6-dihydro-4H-pyrrolo[1,2-a][1,4]benzodiazepin-4-yl)-benzeneethanol .HCl]									IC50 [1]: 12.6 µM; IC50 [2]: 20 µM; IC50 [3]: > 63.1 µM; IC50 [4]: > 63.1 µM; IC50 (Microsporum canis B68128): 2 µM; IC50 [5]: 31.6 µM; IC50 [6]: > 63.1 µM
Cl.OCCc1ccc(C2NCc3c(Cl)cccc3-n3cccc32)cc1 (stereo not shown) [Compound 35, 4-(7-chloro-5,6-dihydro-4H-pyrrolo[1,2-a][1,4]benzodiazepin-4-yl)-benzeneethanol .HCl]							4.4	4.3	Inf. C pIC50 [1]: 5.1; Inf. G pIC50 [2]: 4.9; Inf. E pIC50 [3]: <4.2; Inf. D pIC50 [4]: <4.2; Inf. A pIC50 [6]: <4.2
Cl.OCCc1ccc(C2NCc3cc(Cl)cc(Cl)c3-n3cccc32)cc1 (stereo not shown) [Compound 36, 4-(8,10-dichloro-5,6-dihydro-4H-pyrrolo[1,2-a][1,4]benzodiazepin-4-yl)-benzeneethanol .HCl]							4.3	4.6	Inf. C pIC50 [1]: 4.5; Inf. G pIC50 [2]: 4.7; Inf. E pIC50 [3]: <4.2; Inf. D pIC50 [4]: <4.2; Inf. A pIC50 [6]: <4.2
Cl.OCCc1ccc(C2NCc3c(ccc(Cl)c3Cl)-n3cccc32)cc1 (stereo not shown) [Compound 37, 4-(7,8-dichloro-5,6-dihydro-4H-pyrrolo[1,2-a][1,4]benzodiazepin-4-yl)-benzeneethanol .HCl]							<4.2	5.0	Inf. C pIC50 [1]: 4.5; Inf. G pIC50 [2]: 4.4; Inf. E pIC50 [3]: 4.4; Inf. D pIC50 [4]: <4.2; Inf. A pIC50 [6]: 4.8
Cl.OCCc1ccc(C2NCc3c(Cl)ccc(Cl)c3-n3cccc32)cc1 (stereo not shown) [Compound 38, 4-(7,10-dichloro-5,6-dihydro-4H-pyrrolo[1,2-a][1,4]benzodiazepin-4-yl)-benzeneethanol .HCl]							5.7	4.7	Inf. C pIC50 [1]: 5.1; Inf. G pIC50 [2]: 4.7; Inf. E pIC50 [3]: <4.2; Inf. D pIC50 [4]: <4.2; Inf. A pIC50 [6]: <4.2
CC(=O)c1ccc(C2=NCc3ccc(Cl)cc3-n3cccc32)cc1 [drawing 86]	7	50	40	21	20	69			
CC(=O)c1ccc(C2=NCc3c(Cl)cccc3-n3cccc32)cc1 [drawing 88]	2	33	21	33	18	82			
CCc1ccc(C2=NCc3c(Cl)cccc3-n3cccc32)cc1 [drawing 89]	45	62	64	60	52	41			
CS(=O)(=O)c1ccc(C2=NCc3c(Cl)cccc3-n3cccc32)cc1 [drawing 90]	5	17	1	5	5	48			
